Structures can show the parent of a compound that is named as a salt. Where two headings read alike, the source gives them in different places.
How the values were obtained:
recombinant CETP (rCETP) = molecular target: T1, recombinant CETP (rCETP) (Homo sapiens, UniProt P11597); test: RTA assay using recombinant CETP (2% RTA); type: biochemical
T1 sequence (P11597 18-493): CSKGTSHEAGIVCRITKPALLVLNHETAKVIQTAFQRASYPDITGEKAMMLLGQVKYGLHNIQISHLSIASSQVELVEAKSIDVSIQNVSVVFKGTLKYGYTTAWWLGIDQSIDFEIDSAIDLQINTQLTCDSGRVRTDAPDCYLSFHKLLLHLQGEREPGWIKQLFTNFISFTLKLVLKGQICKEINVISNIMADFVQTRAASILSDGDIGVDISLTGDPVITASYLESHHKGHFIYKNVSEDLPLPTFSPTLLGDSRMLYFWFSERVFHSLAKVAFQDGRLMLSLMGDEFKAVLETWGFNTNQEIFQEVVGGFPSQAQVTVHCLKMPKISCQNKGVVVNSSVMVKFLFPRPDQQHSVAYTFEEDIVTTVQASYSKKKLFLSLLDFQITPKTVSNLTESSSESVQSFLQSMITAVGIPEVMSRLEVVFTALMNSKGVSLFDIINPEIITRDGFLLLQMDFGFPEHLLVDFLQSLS
Procedure, shortened: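 Compounds preincubated 1 h at 37 °C with assay cocktail (CETP buffer: 50 mM Tris pH 7.4, 100 mM NaCl, 1 mM EDTA; human HDL acceptor); transfer started with [3H]cholesteryl oleate- or [3H]triolein-labelled LDL, 60 min at 37 °C. LDL PEG-precipitated; supernatant counted by scintillation, blank-corrected; IC50 from 4-parameter sigmoidal fit of % inhibition vs DMSO control.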

[1] = cited from earlier work
[2] = RTA assay in 2% human serum, read-out: IC50
[3] = value printed with the example, serum level not stated there, read-out: RTA
[4] = patients, with baseline statin therapy, compared with just a statin

Row | Compound | IC50 (recombinant CETP (rCETP); [2]) [nM] | also measured
1 | COc1ccc(Cc2ncc[nH]2)cc1-c1ccc(N2CCC2)nc1CN1C(=O)O[C@H](c2cc(C(F)(F)F)cc(C(F)(F)F)c2)[C@@H]1C [Example 267, (4S,5R)-3-({6-azetidin-1-yl-3-[5-(1H-imidazol-2-ylmethyl)-2-methoxyphenyl]pyridin-2-yl}methyl)-5-[3,5-bis(trifluoromethyl)phenyl]-4-methyl-1,3-oxazolidin-2-one] | 67 | 
2 | COc1ccc(CCc2ncc[nH]2)cc1-c1ccc(N2CCC2)nc1CN1C(=O)O[C@H](c2cc(C(F)(F)F)cc(C(F)(F)F)c2)[C@@H]1C [Example 268] | 91 | 
3 | COc1ccc(CCc2n(C)cc[n+]2C)cc1-c1ccc(N2CCC2)nc1CN1C(=O)O[C@H](c2cc(C(F)(F)F)cc(C(F)(F)F)c2)[C@@H]1C [Example 269, 2-(2-{3-[6-azetidin-1-yl-2-({(4S,5R)-5-[3,5-bis(trifluoromethyl)phenyl]-4-methyl-2-oxo-1,3-oxazolidin-3-yl}methyl)pyridin-3-yl]-4-methoxyphenyl}ethyl)-1,3-dimethyl-1H-imidazol-3-ium formate] | 175 | 
4 | COc1ccc(CCc2nc[nH]n2)cc1-c1ccc(N2CCC2)nc1CN1C(=O)O[C@H](c2cc(C(F)(F)F)cc(C(F)(F)F)c2)[C@@H]1C [Example 270, (4S,5R)-3-[(6-azetidin-1-yl-3-{2-methoxy-5-[2-(1H-1,2,4-triazol-3-yl)ethyl]phenyl}pyridin-2-yl)methyl]-5-[3,5-bis(trifluoromethyl)phenyl]-4-methyl-1,3-oxazolidin-2-one] | 7 | 
5 | COc1ccc(CCC(=O)O)cc1-c1ccc(N2CCCCC2)nc1CN1C(=O)O[C@H](c2cc(C(F)(F)F)cc(C(F)(F)F)c2)[C@@H]1C [Example 271, 3-{3-[2-({(4S,5R)-5-[3,5-bis(trifluoromethyl)phenyl]-4-methyl-2-oxo-1,3-oxazolidin-3-yl}methyl)-6-piperidin-1-ylpyridin-3-yl]-4-methoxyphenyl}propanoic acid] | 96 | 
6 | COc1ccc([C@H]2CC[C@H](C(=O)O)CC2)cc1-c1cnc(N2CCC2)nc1CN1C(=O)O[C@H](c2cccc(C(F)(F)F)c2)[C@@H]1C [Example 272] | 165 | 
7 | COc1ccc(CCC(=O)O)cc1-c1cnc(N2CCC2)nc1CN1C(=O)O[C@H](c2cccc(C(F)(F)F)c2)[C@@H]1C [Example 273] | 2300 | 
8 | COc1ccc(C2C[C@H]2C(=O)O)cc1-c1cnc(N2CCC2)nc1CN1C(=O)O[C@H](c2cccc(C(F)(F)F)c2)[C@@H]1C (some centres unmarked) [Example 274] | 1620 | 
9 | Cc1cc(C(=O)O)ccc1-c1cccc(-c2cnc(N3CCC3)nc2CN2C(=O)O[C@H](c3cccc(C(F)(F)F)c3)[C@@H]2C)c1 [Example 275] | 605 | 
10 | Cc1cc(C(=O)O)ccc1-c1cc(-c2cnc(N3CCC3)nc2CN2C(=O)O[C@H](c3cccc(C(F)(F)F)c3)[C@@H]2C)ccc1F [Example 276] | 76 | 
11 | COc1cc(F)c(-c2ccc(C(=O)O)cc2C)cc1-c1cnc(N2CCC2)nc1CN1C(=O)O[C@H](c2ccc(F)cc2)[C@@H]1C [Example 279] | 189 | 
12 | C[C@H]1[C@@H](c2cc(C(F)(F)F)cc(C(F)(F)F)c2)OC(=O)N1Cc1nc(N2CCC2)ncc1-c1cc(CCC(=O)O)ccc1Cl [Example 280] | 23 | 
13 | COc1ccc([C@H]2CC[C@H](C(=O)O)CC2)cc1-c1ccc(N2CC(F)(F)C2)nc1CN1C(=O)O[C@H](c2cc(F)cc(C(F)(F)F)c2)[C@@H]1C [Example 283, trans-4-{3-[6-(3,3-difluoroazetidin-1-yl)-2-({(4S,5R)-5-[3-fluoro-5-(trifluoromethyl)phenyl]-4-methyl-2-oxo-1,3-oxazolidin-3-yl}methyl)pyridin-3-yl]-4-methoxyphenyl}cyclohexanecarboxylic acid] | 9 | 
14 | COc1ccc(-n2ncc(C(=O)O)c2C(F)(F)F)cc1-c1c(C)cc(N2CCC2)nc1CN1C(=O)O[C@H](c2cc(C(F)(F)F)cc(C(F)(F)F)c2)[C@@H]1C [Example 285] | 4 | 
15 | COc1c(F)cc(-c2ccc(C(=O)O)cc2C)cc1-c1c(C)cc(N2CCC2)nc1CN1C(=O)O[C@H](c2cc(C(F)(F)F)cc(C(F)(F)F)c2)[C@@H]1C [Example 287] | 3 | 
16 | Cc1cc(C(=O)O)ccc1-c1cc(F)cc(-c2ccc(N3CCC3)nc2CN2C(=O)O[C@H](c3cc(C(F)(F)F)cc(C(F)(F)F)c3)[C@@H]2C)c1 [Example 288] | 11 | 
17 | COc1ccc(-c2ccc(C(=O)O)cc2C)cc1-c1ccc(N2CCC2)nc1CN1C(=O)O[C@H](c2cc(C(F)(F)F)cc(C(F)(F)F)c2)[C@@H]1C [Example 289] | 7 | 
18 | C[C@H]1[C@@H](c2cc(F)cc(C(F)(F)F)c2)OC(=O)N1Cc1nc(N2CC(F)(F)C2)ncc1-c1cc([C@H]2CC[C@H](C(=O)O)CC2)ccc1Cl [Example 291] | 49 | 
19 | COc1ccc([C@H]2CC[C@H](C(=O)O)CC2)cc1-c1c(C)cc(N2CCC2)nc1CN1C(=O)O[C@H](c2cc(F)cc(C(F)(F)F)c2)[C@@H]1C [Example 292] | 7 | 
20 | COc1ccc([C@H]2CC[C@H](C(=O)O)CC2)cc1-c1ccc(N2CC(F)(F)C2)nc1CN1C(=O)O[C@H](c2cc(C)cc(C(F)(F)F)c2)[C@@H]1C [Example 293] | 7 | 
21 | COc1ccc([C@H]2CC[C@H](C(=O)O)CC2)cc1-c1ccc(N2CC(F)(F)C2)nc1CN1C(=O)O[C@H](c2cccc(OC(F)(F)F)c2)[C@@H]1C [Example 294] | 102 | 
22 | COc1ccc([C@H]2C[C@H](C(=O)O)C2)cc1-c1ccc(N2CC(F)(F)C2)nc1CN1C(=O)O[C@H](c2cccc(OC(F)(F)F)c2)[C@@H]1C [Example 295] | 114 | 
23 | COc1cc(F)c(-c2ccc(C(=O)O)cc2C)cc1-c1ccc(N2CC(F)(F)C2)nc1CN1C(=O)O[C@H](c2cccc(OC(F)(F)F)c2)[C@@H]1C [Example 296] | 8 | 
24 | COc1ccc(CCC(=O)O)cc1-c1ccc(N2CC(F)(F)C2)nc1CN1C(=O)O[C@H](c2cccc(OC(F)(F)F)c2)[C@@H]1C [Example 297] | 375 | 
25 | COc1ccc(-c2ccc(C(=O)O)cc2C)cc1-c1cnc(N2CCC2)nc1CN1C(=O)O[C@H](c2cc(Cl)cc(Cl)c2)[C@@H]1C [Example 302] |  | IC50 (recombinant CETP (rCETP); [3]): 4.43 nM
26 | COc1cc(F)c(C(C)C)cc1-c1cnc(N2CC(F)C2)nc1CN1C(=O)O[C@H](c2cc(C3CC3)cc(C(F)(F)F)c2)[C@@H]1C [Example 303, (4S,5R)-5-[3-cyclopropyl-5-(trifluoromethyl)phenyl]-3-({2-(3-fluoroazetidin-1-yl)-5-[4-fluoro-2-methoxy-5-(propan-2-yl)phenyl]pyrimidin-4-yl}methyl)-4-methyl-1,3-oxazolidin-2-one] |  | IC50 (recombinant CETP (rCETP); [3]): 98 nM
27 | COc1cc(F)c(C(C)C)cc1-c1ccc(C(F)(F)F)cc1CN1C(=O)O[C@H](c2cc(C(F)(F)F)cc(C(F)(F)F)c2)[C@@H]1C [anacetrapib] |  | increase in mortality ([1]; patients treated with anacetrapib): unlikely; decrease of LDL-C [1, 4]: 40%; increase of HDL-C [1, 4]: 138%
